Test results taken from patent US20080145893A1, “Method for producing a recombinant protein at high specific productivity, high batch yield and high volumetric yield by means of transient transfection” (EXCELLEGENE SA, priority 2006, published 2008).

Tests used:
[1] = test system: CHO DG44 cells; assay: Influence of temperature and sodium butyrate on IgG batch yield (ELISA) of transiently transfected cells; type: cell-based; conditions: 2 mmol/l NaBut, peak value during 18 day cultivation
Experimental: After that time, 18 ml of ProCHO5 medium were added. The cells were then equally distributed into 4 new 50-ml filter tubes (i.e., 5 ml of cell suspension in each tube) and treated as follows:
Tubes 8.1 and 8.3: Addition of sodium butyrate to a final concentration of 2 mmol/l
Tubes 8.2 and 8.4: No addition of sodium butyrate.

[2] = test system: HEK293E cells; assay: Influence of sodium butyrate on IgG batch yield (ELISA) of transiently transfected cells; conditions: day 14
[3] = test system: HEK293E cells; assay: Influence of 2-aminopurine on IgG batch yield (ELISA) of transiently transfected cells; type: cell-based; conditions: with 3 mmol/l sodium butyrate, day 18

CCCC(=O)[O-].[Na+] [NaBut, sodium butyrate]
Maximum batch yield ([1]; 31° C.): 231 mg/L | Maximum batch yield ([1]; 37° C.): 218 mg/L | Batch yield ([2]; 1 mmol/l NaBut): 419 mg/L | Batch yield ([2]; 2 mmol/l NaBut): 632 mg/L | Batch yield ([2]; 3 mmol/l NaBut): 673 mg/L | Batch yield ([2]; 6 mmol/NaBut): 447 mg/L | Batch yield ([2]; 12 mmol/l NaBut): 288 mg/L

Nc1ncc2[nH]cnc2n1 [2-aminopurine]
Batch yield ([3]; 5 mmol/l 2-aminopurine): 628 mg/L | Batch yield ([3]; 10 mmol/l 2-aminopurine): 708 mg/L
